Laboratory results as given in patent US10392443B2, “Diagnostic and therapeutic tool for cancer” (Agency for Science, Technology and Research, priority 2014, dated 2019).

Test system: MHCC-LM3 cells
Experiment: Fibronectin attachment with recombinant Agrin coat, Western blot
Type: cell-based, human
Conditions: Agrin depleted MHCC-LM3 cells; fibronectin supplemented with 20 μg/ml recombinant Agrin as ECM coat; 2 h post plating
Description: 72 h post transfections, cell lysates were analysed for indicated proteins; (b and c) show Western blot analysis of control or Agrin depleted MHCC-LM3 cells, which were serum starved overnight, trypsinized and plated on fibronectin or fibronectin supplemented with 20 μg/ml recombinant Agrin coated surface. […] Representative images under 20× magnification are shown and results quantitated using Image J software (P value=0.005). Thus, FIG. 6 validates the role of Agrin as an ECM sensor regulating focal adhesion, cell spreading and invasion to affect EMT program in HCC cell lines.
Briefly, culture plates were coated with 10 μg/ml fibronectin for 1 h at 37° C. Either control or Agrin knockdown cells (2*10^3 cells/ml) were trypsinized and plated on coated dishes. Adhered cells were analysed either by live cell imaging for morphological changes at indicated time-points or lysates were collected and subjected to Western blot analysis.

recombinant Agrin: Pure recombinant Agrin protein obtained from MyBiosource
activation of focal adhesion kinase and Arp2/3: substantially increased
